Values of other authors in patent publication US9695131B2, “Substituted uracils as chymase inhibitors” (Bayer Pharma Aktiengesellschaft, priority 2013, dated 2017).

System: hamsters with myocardial infarction

CCOc1ccccc1CC1C(=O)N(C(=O)NC(c2ccc(C)cc2)c2ccc(C)cc2)C1Oc1ccc(C(=O)O)cc1 (stereo not drawn) [BCEAB]
chymase activity: reduced | haemodynamics: improved | mortality: reduced
